From ChEMBL document CHEMBL3507680, “University of Dundee, Gates Library screen for HepG2 cell viability”

Assay: Human HepG2 cell viability assay in 384 well format
Assay type: toxicity, cell-based
Parameters: dose 125 nL, time 70.5 hour; cytotoxicity at 70.5 h: concentration not given beside the values
Settings: HepG2 cells, read-out: Inhibition

| SMILES | cytotoxicity at 70.5 h [%] |
| --- | --- |
| Cc1occc1C(=O)NCC(O)c1ccc(Cl)s1 (centres undefined) | 3.32 |
| NC(=O)CN1CCN(S(=O)(=O)N2CCCC2c2ccco2)CC1 (centres undefined) | -3.32 |
| O=c1[nH]c(C2CCOC2)nc2cc(F)c(F)cc12 (centres undefined) | -10.3 |
| CC(C)CNC(=O)C(C)N1CCN(C2CCN(C(C)C)CC2)CC1 (centres undefined) | -12.6 |
| COc1cc(CNc2cc(-c3ccoc3C)nn2CCO)ccc1F | 11.9 |
| O=C(c1ccc(-n2cccn2)nc1)N1CCC(c2ccc(O)cc2)CC1 | -5.83 |
| COc1ccc(C(C)NCc2nnc(C)s2)cc1F (centres undefined) | -2.29 |
| Cc1nnc(CNC(C)c2cc(C)c(F)c(C)c2)s1 (centres undefined) | -5.2 |
| Cc1cc(C)cc(C(C)NCc2nnc(C)s2)c1 (centres undefined) | -12 |
| COCCN(Cc1ccc(C)o1)C(=O)Nc1ncc(C)s1 | -8.73 |
| CCN(Cc1cccc(Cl)c1)Cc1ncc(C(C)(C)C)o1 | -1.17 |
| COc1cc(NCCNC(=O)c2cc[nH]c2C)cc(OC)c1 | 3.9 |
| NC(=O)CC1CCN(S(=O)(=O)N2CCCC2c2ccco2)CC1 (centres undefined) | -5.7 |
| COC(=O)CC(NC(=O)CCCn1cccn1)c1ccc(Cl)cc1 (centres undefined) | -14.1 |
| COCc1nnc(-c2cccc(C(=O)N(C)CC(C)(C)C)c2)o1 | -14.1 |
| Cc1noc(CCCNC(=O)C2CSCN2C(=O)C(C)(C)C)n1 (centres undefined) | 18.7 |
| Cc1ccc(CCCC(=O)N2CCC(=O)Nc3cccnc32)s1 | 12.9 |
| Cc1ncsc1CCN(C)Cc1ccc(Br)o1 | 9.94 |
| CC(C)c1nnc(NC(=O)Cc2csc(-c3nnc[nH]3)n2)s1 | 22.4 |
| Cc1cnn(C2CN(c3nc(-c4ccncc4)nc4c3CCC4)C2)c1 | -6.05 |
| CCC(C)c1csc(NC(=O)c2sc(-c3nnc[nH]3)nc2C)n1 (centres undefined) | -9.94 |
| Cc1nn2cccnc2c1C(=O)NCc1ccccc1OCC1CC1 | -13.8 |
| N#Cc1cccnc1Nc1ccc(N2CCC(C(N)=O)CC2)cc1 | 4.18 |
| CNC(=O)CCOC(=O)c1cccc(-n2cccn2)c1 | -10.7 |

| SMILES | cytotoxicity at 70.5 h [%] |
| --- | --- |
| O=C(Cc1cccnc1)N1CCCC(c2cc(C(F)(F)F)[nH]n2)C1 (centres undefined) | -2.42 |
| FC(F)(F)c1cc(C2CCCN(Cc3cccnc3)C2)n[nH]1 (centres undefined) | 9.85 |
| Cc1ccc(CCCC(=O)N2CC(=O)Nc3cccnc32)s1 | -11.1 |
| CN(Cc1csc2ccccc12)C(=O)NC1CCS(=O)(=O)C1 (centres undefined) | -7.9 |
| CC(NCc1nnc2n1CCCC2)c1nc(-c2cccs2)no1 (centres undefined) | 2.78 |
| Cc1noc(CCCC(=O)N2CSCC2C(=O)NCC2CC2)n1 (centres undefined) | -7.96 |
| FC(F)(F)c1cc(C2CCCN(Cc3ccncc3)C2)n[nH]1 (centres undefined) | -1.55 |
| Cc1ncc(CNC(CCO)C2CCCCC2)s1 (centres undefined) | 1.31 |
| Cc1ccc(C)c(S(=O)(=O)CCN2CCCC2Cn2cccn2)c1 (centres undefined) | -7.12 |
| CCc1nnc2n1CCN(C(=O)CCOc1ccc(C)cc1C)C2 | -4.53 |
| CCc1nnc2n1CCN(C(=O)CCOc1cc(C)ccc1C)C2 | -5.39 |
| Cc1nc(C(=O)N(CC2CCCO2)c2ccncc2)cs1 (centres undefined) | -16.6 |
| CC1CCCN(C(=O)c2ccc(N(C)Cc3cnn(C)c3)nc2)C1 (centres undefined) | 20.1 |
| CC1CN(c2ccc(NC(=O)Cn3cccn3)cc2)CCO1 (centres undefined) | -5.08 |
| CC(C)c1n[nH]c(C2CN(C(=O)COCC(F)(F)F)CCO2)n1 (centres undefined) | -12.9 |
| COc1ccc(CCCC(=O)NCc2c(C)noc2C)cc1F | 20 |
| O=C(NCCNC(=O)c1ccc(Cl)cc1)NCCn1cccc1 | -4.35 |
| Cc1c(CN2CCCC(C(=O)Nc3ccccc3)C2)cc(C#N)n1C (centres undefined) | -2.58 |
| CCOc1cc(CNCC2CN(C3CC3)CCO2)ccc1OC (centres undefined) | -8.19 |
| COc1ccc(CNCC2CN(C3CC3)CCO2)cc1F (centres undefined) | -8.08 |
| CN(C)C1CCCN(C(=O)NCCc2cc(F)ccc2F)C1 (centres undefined) | 23.5 |
| CC(CC(=O)N1CCCN(Cc2nccn2C)CC1)n1cccc1 (centres undefined) | -12.4 |
| N#Cc1cccnc1N1CCC(OCc2ccccc2)CC1 | -8.71 |
| Cc1ccc(CCC(=O)N2CCn3c(nnc3C(C)C)C2)cc1Cl | 24.9 |

| SMILES | cytotoxicity at 70.5 h [%] |
| --- | --- |
| Cn1cnnc1C1CCN(C(=O)CCCOCc2ccccc2)CC1 | -11.3 |
| CC(C)c1n[nH]c(C2CN(C(=O)COc3ccc(F)cc3)CCO2)n1 (centres undefined) | -8.14 |
| Cc1ccc(C)c(S(=O)(=O)CCN2CCCC2Cn2cncn2)c1 (centres undefined) | -14.3 |
| CCc1nc(CN2CCCC(N(C)CCn3cncn3)C2)no1 (centres undefined) | -9.76 |
| CCc1nc(CN2CCCC(NCCn3cncn3)C2)no1 (centres undefined) | -8.1 |
| O=C(CNC(=O)c1ccoc1)NCCOc1ccc2c(c1)CCC2 | -6.52 |
| Cc1cc(N2CCc3c(ncn3C3CC3)C2)nc(N)n1 | -7.99 |
| Cc1c(Cl)cccc1NC(=O)CCNc1ccc(C#N)cn1 | -6.94 |
| OC(CN1CCN(CC2CC2)CC1)c1ccc(Br)cc1 (centres undefined) | -2.6 |
| CS(=O)(=O)NC1CCN(C(=O)c2ccc(Br)o2)C1 (centres undefined) | -5.52 |
| CS(=O)(=O)NC1CCN(C(=O)c2ccc(Br)cc2)C1 (centres undefined) | -7.16 |
| COc1cc(Cl)c(C)cc1NC(=O)CCNc1ccc(C#N)cn1 | 9.88 |
| Cc1nsc(N2CCN(CC(=O)NCc3cccnc3)CC2)n1 | -0.83 |
| O=C(CCc1ccco1)NCC1CCCN1c1cccnn1 (centres undefined) | -2.58 |
| Cn1cnnc1CNC(=O)Nc1ccc(OC2CCC2)c(F)c1 | -4.19 |
| CSc1ccc(NC(=O)NCc2nncn2C2CC2)cc1F | 2.39 |
| Cc1csc(CCCNC(=O)NC2CC(=O)N(C(C)(C)C)C2)n1 (centres undefined) | -2.05 |
| Cc1nc(C)c(CCNC(=O)NC2CC(=O)N(C(C)(C)C)C2)s1 (centres undefined) | -5.16 |
| O=C(c1ccc2nncn2c1)N1CCCC1c1noc(C2CC2)n1 (centres undefined) | -7.81 |
| c1cnnc(N2CCCC2CNCCc2cccs2)c1 (centres undefined) | -7.61 |
| COC(=O)N1CCC(Nc2cccc(F)c2C(C)=O)C1 (centres undefined) | -9.32 |
| CCC(C)NC(=O)c1ccc(CNC(=O)COC)cc1 (centres undefined) | -9.97 |
| Cc1ccc(C(=O)NCCNC(=O)c2cncnc2C(C)C)cc1F | -7.29 |
| CC(C)(C)OC(=O)NCC1CCN(C(=O)c2ccccc2O)CC1 | -7.62 |

| SMILES | cytotoxicity at 70.5 h [%] |
| --- | --- |
| Cc1c(F)cc(C(=O)NCC(F)(F)F)cc1NCC(=O)N(C)C | 10.3 |
| COC(=O)CCNC(=O)c1ccc(NC(=O)N(C)CC(C)C)cc1 | 12.2 |
| CC(C)C(=O)NCc1ccccc1NS(=O)(=O)c1ccccc1 | -3.22 |
| COc1ccc(OC)c(C(O)CN2CCN(C3CCCC3)CC2)c1 (centres undefined) | -7.66 |
| COC(=O)C1CN(CC(=O)Nc2cccc(OC)c2)c2ccccc21 (centres undefined) | -9.39 |
| COC(=O)N1CCC(Nc2cccc(F)c2C#N)CC1 | -3.28 |
| CC(=O)c1c(F)cccc1NC1CCN(C(=O)CC(C)C)CC1 | 12.4 |
| Cc1ccc(O)c(C(=O)N2CCC(CNC(=O)OC(C)(C)C)C2)c1 (centres undefined) | -7.45 |
| CN(CCc1ccncc1)Cc1nccn1Cc1ccccc1 | 8.96 |
| CCCNC(=O)NCc1ccccc1NS(=O)(=O)c1ccccc1 | -0.797 |
| CC(=O)c1c(F)cccc1NC1CCN(S(=O)(=O)C2CC2)CC1 | -6.69 |
| O=C(Nc1cnc(C2CC2)nc1)N1CCCC1 | -1.33 |
| O=C(Nc1cnc(C2CC2)nc1)N1CCC(CN2CCCC2)C1 (centres undefined) | 17.5 |
| CCC(C)(NCC(=O)OC)c1nccs1 (centres undefined) | -2.64 |
| CCC(C)(NCC(N)=O)c1nccs1 (centres undefined) | -4.9 |
| CCNC(=O)NC(=O)CNC(C)(CC)c1nc(C)cs1 (centres undefined) | -4.63 |
| COCc1ccccc1C(=O)N1CCC(CNC(=O)OC(C)(C)C)C1 (centres undefined) | -6.54 |
| CC(C)c1nccn1C1CCCN(C(=O)c2ccc(=O)n(C)n2)C1 (centres undefined) | -8.03 |
| CCNS(=O)(=O)C1CCN(C(=O)c2ccc(CC)o2)C1 (centres undefined) | -9.53 |
| Cc1ccc(CNC(=O)N2CCOCC2C2CC2)cc1F (centres undefined) | -8.34 |
| NC(=O)CN1CCC(NC2CSCCc3ccccc32)CC1 (centres undefined) | 5.08 |
| CS(=O)(=O)NCCNC(=O)C1(c2ccc(F)cc2)CC1 | -0.0991 |
| O=S(=O)(NCCN1CCOCC1)c1cncc(Cl)c1 | 4.99 |
| NC(=O)C1CN(c2ccc3c(Cl)ccnc3c2F)CCO1 (centres undefined) | -7.96 |

| SMILES | cytotoxicity at 70.5 h [%] |
| --- | --- |
| COc1ncnc(N)c1CNCCOc1ccccc1Cl | -5.86 |
| C[C@@H]1CN(c2ccc3c(Cl)ccnc3c2F)CC(C(N)=O)O1 (some centres undefined) | -4.78 |
| CS(=O)(=O)CCOCCNc1ccc(C(F)(F)F)cc1C#N | -3.49 |
| CCOc1cccc(COC(=O)c2ccc(F)cn2)n1 | -2.51 |
| CC1CCN(C)c2ccccc2N1C(=O)c1ccn(C)c(=O)c1 (centres undefined) | -6.59 |
| CCc1cc(C)nc(N2CCN(C(C)c3nc(C)no3)CC2)n1 (centres undefined) | -7.01 |
| CN(C)c1ccnc(N2CCC(NCCOc3ccccc3)CC2)n1 | 19.6 |
| Cc1cccc(C(=O)Nc2cccc3c2CCCC3)n1 | -1.46 |
| CCOC(=O)c1nc(CN2CCN(C(C)C(=O)NC3CC3)CC2)cs1 (centres undefined) | -9.09 |
| Cc1ncc2c(n1)CN(C(C(N)=O)c1ccccc1)CC2 (centres undefined) | -7.87 |
| O=S(=O)(CCCS(=O)(=O)c1ccc2c(c1)OCCCO2)c1ccccc1 | -7.8 |
| COc1ccc(F)cc1CSCC(=O)N(CCC#N)CCC#N | -3.2 |
| c1ccc(OCCNC2CCN(c3ncccn3)CC2)cc1 | 2.01 |
| CS(=O)(=O)CCCNC(=O)NC1CC(c2cccc(Cl)c2)C1 (centres undefined) | -3.19 |
| COCC(=O)NC1CCCN(c2ccc(C)cc2)C1=O (centres undefined) | -0.459 |
| O=C(Nc1ccccc1OC1CCOC1)c1cc[nH]n1 (centres undefined) | 16.6 |
| O=S1(=O)CCC(N2CCN(c3cc(C(F)(F)F)ccn3)CC2)C1 (centres undefined) | 1.03 |
| COCCN(C(=O)c1c[nH]c2ncccc12)C1CCCC1 | 0.976 |
| Cc1cnn(-c2cccc(N3CCCCC3)n2)c1 | 15.7 |
| COC(=O)c1cnc(C(=O)N(c2ccc(OC)c(F)c2)C(C)C)cn1 | 0.246 |
| Cc1ccc(O)c(C(=O)N2CCCC2c2nncn2CC(C)C)c1 (centres undefined) | -0.402 |
| Cc1ccc(C(=O)Nc2cccc3c2C(=O)NC3)c(C)n1 | 2.51 |
| CC(C)(N)c1nc(C(F)F)cc(=O)[nH]1 | -6.3 |
